Assay results taken from ChEMBL document CHEMBL5543112, “Discovery of CBPD-268 as an Exceptionally Potent and Orally Efficacious CBP/p300 PROTAC Degrader Capable of Achieving Tumor Regression” (J Med Chem, 2024).

Key:
[1] = Metabolic stability in mouse liver microsome assessed as half life measured upto 60 mins in presence of NADPH by LC-MS/MS analysis; format: ADME; details: liver microsomes
[2] = Drug distribution in SCID mouse tumor at 3 mg/kg, po measured at 24 hrs by LC-MS/MS analysis; format: ADME, organism-based, Neoplasm; details: read-out: Ct
[3] = Drug distribution in SCID mouse liver at 1 mg/kg, po measured at 1 hr by LC-MS/MS analysis; format: ADME, organism-based; details: read-out: Ct
[4] = Drug distribution in SCID mouse spleen at 1 mg/kg, po measured at 6 hrs by LC-MS/MS analysis; format: ADME, organism-based; details: read-out: Ct
CWR22R [5] = experiment: Antitumor activity against human 22Rv1 cells xenografted in SCID mouse assessed as tumor growth inhibition at 1 mg/kg, po administered 3 times a week for 3 weeks; format: functional; details: 22Rv1, 504 h, read-out: TGI
CWR22R [6] = experiment: Antitumor activity against human 22Rv1 cells xenografted in SCID mouse assessed as tumor growth inhibition at 3 mg/kg, po administered 3 times a week for 3 weeks; format: functional; details: 22Rv1, 504 h, read-out: TGI
[7] = Toxicity in female BALB/c mouse assessed as body weight loss at 30 mg/kg, po administered twice a week for 5 to 6 weeks; format: organism-based; details: in vivo, time 5-6 weeks
[8] = Drug distribution in Sprague-Dawley rat plasma at 10 mg/kg, po measured at 24 hrs by LC-MS/MS analysis; format: ADME, organism-based
[9] = Toxicity in immune-competent Sprague-Dawley rat assessed as change in basophil at 1 to 10 mg/kg, po administered twice a week for 5 weeks; format: organism-based; details: in vivo, 840 h, dose 1-10 mg/kg

CC(=O)N1CCc2c(c(N3CCCc4cc(-c5cnn(C)c5)c(C(F)F)cc43)nn2[C@H]2CC[C@H](CN3Cc4cc5c(cc4C3)C(=O)N(C3CCC(=O)NC3=O)C5=O)CC2)C1 (some centres undefined)
half-life [1]: > 2 h | concentration at 24 h [2]: 12 ng/mL | concentration at 1 h [3]: 1640 ng/mL | concentration at 6 h [4]: 127 ng/mL | inhibition in vivo at 1 mg/kg (CWR22R [5]): 54% | inhibition in vivo at 3 mg/kg (CWR22R [6]): 83% | Activity [7]: < 5% | concentration at 24 h [8]: 1.3 ng/mL | Activity [9]: Non-Toxic
